Source: patent US20040259851A1, “Methods of administering estrogens and progestins” (priority 2003, published 2004)
Where two headings read alike, the source gives them in different places.

Assays:
[1] = Megestrol Acetate in plasma samples by GC/MS; format: in vivo; details: human; for concentration at 1 h: 1 h post dosing; for concentration at 2 h: 2 h post dosing; for concentration at 4 h: 4 h post dosing; for concentration at 8 h: 8 h post dosing; for concentration at 12 h: 12 h post dosing; for concentration at 24 h: 24 h post dosing; for concentration at 36 h: 36 h post dosing; for concentration at 48 h: 48 h post dosing; for concentration at 0 h: time 0 h (predose)
Procedure: A total of 90 plasma samples were analyzed for their content of Megestrol Acetate by GC/MS.
In this study megestrol acetate was utilized and medroxyprogesterone acetate was utilized as an internal standard.
For each sample, 1 mL of human plasma was aliquoted and spiked with 25 μL of the internal standard working solution. In the following, the samples were alkalized and extracted with a toluene/diisopropylether mixture. The resulting extracts were stored in a refrigerator until measurement. Just prior to measurement, the sample extracts were evaporated to dryness and reconstituted in toluene. 2 μL of the resulting solution were injected into the GC/MS system. The gas chromatograph was run in the temperature-programmed mode to achieve improved separation. Positive ions chemical ionization (PICI) was used for mass selective detection. Selected mass/charge ratios were m/z 385.2 for megestrol acetate and m/z 387.2 for the internal standard.
The time measured represents the number of hours passed post dosing. Subjects 2, 4, 6, 8 and 10 all received a 6 mg dose of megestrol acetate. Subjects 1, 3, 5, 7 and 9 all received a 1.5 mg dose of megestrol acetate. […] A third measurement was not possible due to insufficient sample. During the study, 3 series of plasma calibration curves were measured (prevalidation run not considered).

menopausal hot flashes = details: cited from earlier work

CC(=O)O[C@]1(C(C)=O)CC[C@H]2[C@@H]3C=C(C)C4=CC(=O)CC[C@]4(C)[C@H]3CC[C@@]21C [megestrol acetate, Pregna-4,6-diene-3,20-dione, 17-(acetyloxy)-6-methyl-]
concentration at 1 h ([1]; 1.5 mg, Sub 1, 1.5 mg dose): 7.82 ng/mL | concentration at 2 h ([1]; 1.5 mg, Sub 1, 1.5 mg dose): 2.74 ng/mL | concentration at 4 h ([1]; 1.5 mg, Sub 1, 1.5 mg dose): 1.01 ng/mL | concentration at 8 h ([1]; 1.5 mg, Sub 1, 1.5 mg dose): 0.607 ng/mL | concentration at 12 h ([1]; 1.5 mg, Sub 1, 1.5 mg dose): 0.413 ng/mL | concentration at 24 h ([1]; 1.5 mg, Sub 1, 1.5 mg dose): 0.399 ng/mL | concentration at 36 h ([1]; 1.5 mg, Sub 1, 1.5 mg dose): 0.504 ng/mL | concentration at 48 h ([1]; 1.5 mg, Sub 1, 1.5 mg dose): 0.463 ng/mL | concentration at 0 h ([1]; 1.5 mg, Sub 1, 1.5 mg dose): 0.492 ng/mL | concentration at 1 h ([1]; 1.5 mg, Sub 3, 1.5 mg dose): 9.32 ng/mL | concentration at 2 h ([1]; 1.5 mg, Sub 3, 1.5 mg dose): 5.24 ng/mL | concentration at 4 h ([1]; 1.5 mg, Sub 3, 1.5 mg dose): 3.04 ng/mL | concentration at 8 h ([1]; 1.5 mg, Sub 3, 1.5 mg dose): 2.66 ng/mL | concentration at 12 h ([1]; 1.5 mg, Sub 3, 1.5 mg dose): 1.98 ng/mL | concentration at 24 h ([1]; 1.5 mg, Sub 3, 1.5 mg dose): 1.8 ng/mL | concentration at 36 h ([1]; 1.5 mg, Sub 3, 1.5 mg dose): 1.99 ng/mL | concentration at 48 h ([1]; 1.5 mg, Sub 3, 1.5 mg dose): 1.48 ng/mL | concentration at 0 h ([1]; 1.5 mg, Sub 3, 1.5 mg dose): 1.98 ng/mL | concentration at 1 h ([1]; 1.5 mg, Sub 5, 1.5 mg dose): 4.98 ng/mL | concentration at 2 h ([1]; 1.5 mg, Sub 5, 1.5 mg dose): 2.75 ng/mL | concentration at 4 h ([1]; 1.5 mg, Sub 5, 1.5 mg dose): 0.959 ng/mL | concentration at 8 h ([1]; 1.5 mg, Sub 5, 1.5 mg dose): 0.521 ng/mL | concentration at 12 h ([1]; 1.5 mg, Sub 5, 1.5 mg dose): 0.353 ng/mL | concentration at 24 h ([1]; 1.5 mg, Sub 5, 1.5 mg dose): 0.344 ng/mL | concentration at 36 h ([1]; 1.5 mg, Sub 5, 1.5 mg dose): 0.409 ng/mL | concentration at 48 h ([1]; 1.5 mg, Sub 5, 1.5 mg dose): 0.267 ng/mL | concentration at 0 h ([1]; 1.5 mg, Sub 5, 1.5 mg dose): 0.426 ng/mL | concentration at 1 h ([1]; 1.5 mg, Sub 7, 1.5 mg dose): 7.82 ng/mL | concentration at 2 h ([1]; 1.5 mg, Sub 7, 1.5 mg dose): 4.83 ng/mL | concentration at 4 h ([1]; 1.5 mg, Sub 7, 1.5 mg dose): 1.99 ng/mL | concentration at 8 h ([1]; 1.5 mg, Sub 7, 1.5 mg dose): 1.47 ng/mL | concentration at 12 h ([1]; 1.5 mg, Sub 7, 1.5 mg dose): 1.59 ng/mL | concentration at 24 h ([1]; 1.5 mg, Sub 7, 1.5 mg dose): 0.771 ng/mL | concentration at 36 h ([1]; 1.5 mg, Sub 7, 1.5 mg dose): 0.592 ng/mL | concentration at 48 h ([1]; 1.5 mg, Sub 7, 1.5 mg dose): 0.564 ng/mL | concentration at 0 h ([1]; 1.5 mg, Sub 7, 1.5 mg dose): 0.851 ng/mL | concentration at 1 h ([1]; 1.5 mg, Sub 9, 1.5 mg dose): 14.4 ng/mL | concentration at 2 h ([1]; 1.5 mg, Sub 9, 1.5 mg dose): 9.21 ng/mL | concentration at 4 h ([1]; 1.5 mg, Sub 9, 1.5 mg dose): 4.02 ng/mL | concentration at 8 h ([1]; 1.5 mg, Sub 9, 1.5 mg dose): 1.64 ng/mL | concentration at 12 h ([1]; 1.5 mg, Sub 9, 1.5 mg dose): 1.59 ng/mL | concentration at 24 h ([1]; 1.5 mg, Sub 9, 1.5 mg dose): 1.09 ng/mL | concentration at 36 h ([1]; 1.5 mg, Sub 9, 1.5 mg dose): 1.3 ng/mL | concentration at 48 h ([1]; 1.5 mg, Sub 9, 1.5 mg dose): 1.31 ng/mL | concentration at 0 h ([1]; 1.5 mg, Sub 9, 1.5 mg dose): 1.4 ng/mL | concentration at 1 h ([1]; 6 mg, Sub 2, 6 mg dose): 32.9 ng/mL | concentration at 2 h ([1]; 6 mg, Sub 2, 6 mg dose): 28.1 ng/mL | concentration at 4 h ([1]; 6 mg, Sub 2, 6 mg dose): 9.89 ng/mL | concentration at 8 h ([1]; 6 mg, Sub 2, 6 mg dose): 6.98 ng/mL | concentration at 12 h ([1]; 6 mg, Sub 2, 6 mg dose): 5.84 ng/mL | concentration at 24 h ([1]; 6 mg, Sub 2, 6 mg dose): 4.4 ng/mL | concentration at 36 h ([1]; 6 mg, Sub 2, 6 mg dose): 5.04 ng/mL | concentration at 48 h ([1]; 6 mg, Sub 2, 6 mg dose): 3.58 ng/mL | concentration at 0 h ([1]; 6 mg, Sub 2, 6 mg dose): 6.48 ng/mL | concentration at 1 h ([1]; 6 mg, Sub 4, 6 mg dose): 37.4 ng/mL | concentration at 2 h ([1]; 6 mg, Sub 4, 6 mg dose): 18.7 ng/mL | concentration at 4 h ([1]; 6 mg, Sub 4, 6 mg dose): 7.22 ng/mL | concentration at 8 h ([1]; 6 mg, Sub 4, 6 mg dose): 4.7 ng/mL | concentration at 12 h ([1]; 6 mg, Sub 4, 6 mg dose): 3.05 ng/mL | concentration at 24 h ([1]; 6 mg, Sub 4, 6 mg dose): 2.17 ng/mL | concentration at 36 h ([1]; 6 mg, Sub 4, 6 mg dose): 3.58 ng/mL | concentration at 48 h ([1]; 6 mg, Sub 4, 6 mg dose): 2.9 ng/mL | concentration at 0 h ([1]; 6 mg, Sub 4, 6 mg dose): 4.44 ng/mL | concentration at 1 h ([1]; 6 mg, Sub 6, 6 mg dose): 44 ng/mL | concentration at 2 h ([1]; 6 mg, Sub 6, 6 mg dose): 32.1 ng/mL | concentration at 4 h ([1]; 6 mg, Sub 6, 6 mg dose): 12.6 ng/mL | concentration at 8 h ([1]; 6 mg, Sub 6, 6 mg dose): 7.61 ng/mL | concentration at 12 h ([1]; 6 mg, Sub 6, 6 mg dose): 5.8 ng/mL | concentration at 24 h ([1]; 6 mg, Sub 6, 6 mg dose): 4.04 ng/mL | concentration at 36 h ([1]; 6 mg, Sub 6, 6 mg dose): 6.58 ng/mL | concentration at 48 h ([1]; 6 mg, Sub 6, 6 mg dose): 5.65 ng/mL | concentration at 0 h ([1]; 6 mg, Sub 6, 6 mg dose): 8.58 ng/mL | concentration at 1 h ([1]; 6 mg, Sub 8, 6 mg dose): 19.5 ng/mL | concentration at 2 h ([1]; 6 mg, Sub 8, 6 mg dose): 10.6 ng/mL | concentration at 4 h ([1]; 6 mg, Sub 8, 6 mg dose): 3.68 ng/mL | concentration at 8 h ([1]; 6 mg, Sub 8, 6 mg dose): 1.41 ng/mL | concentration at 12 h ([1]; 6 mg, Sub 8, 6 mg dose): 0.908 ng/mL | concentration at 24 h ([1]; 6 mg, Sub 8, 6 mg dose): 0.459 ng/mL | concentration at 36 h ([1]; 6 mg, Sub 8, 6 mg dose): 1.34 ng/mL | concentration at 48 h ([1]; 6 mg, Sub 8, 6 mg dose): 0.796 ng/mL | concentration at 0 h ([1]; 6 mg, Sub 8, 6 mg dose): < 0.1 ng/mL | concentration at 1 h ([1]; 6 mg, Sub 10, 6 mg dose): 23.5 ng/mL | concentration at 2 h ([1]; 6 mg, Sub 10, 6 mg dose): 17.2 ng/mL | concentration at 4 h ([1]; 6 mg, Sub 10, 6 mg dose): 6.93 ng/mL | concentration at 8 h ([1]; 6 mg, Sub 10, 6 mg dose): 4.95 ng/mL | concentration at 12 h ([1]; 6 mg, Sub 10, 6 mg dose): 2.85 ng/mL | concentration at 24 h ([1]; 6 mg, Sub 10, 6 mg dose): 1.77 ng/mL | concentration at 36 h ([1]; 6 mg, Sub 10, 6 mg dose): 2.6 ng/mL | concentration at 48 h ([1]; 6 mg, Sub 10, 6 mg dose): 1.63 ng/mL | decrease of menopausal hot flashes (menopausal hot flashes; daily dose 20 mg): 80% | decrease of menopausal hot flashes (menopausal hot flashes; daily dose 40 mg): 89% | decrease of menopausal hot flashes (menopausal hot flashes; daily dose 80 mg): 98%
